Experiments:
HCV NS3/4A protease = biological target: T1, HCV NS3/4A protease (Hepatitis C virus genotype 1a, UniProt P27958); experiment: Fluorescence NS3 serine protease assay (FRET); type: biochemical
T1 construct: NS3 protein with a two-fold excess of the NS4A cofactor peptide Pep4AK was prepared in 1× assay buffer; made in house
Description: A fluorescence NS3 serine protease assay, based on fluorescence resonance energy transfer, was conducted using reagents provided in a SensoLyte™ 520 HCV protease assay kit (AnaSpec, San Jose, CA, USA), as described previously. Briefly, NS3 protein with a two-fold excess of the NS4A cofactor peptide Pep4AK was prepared in 1× assay buffer provided with the kit. HCV NS3/4A protease was mixed with increasing concentrations of inhibitor, and incubated at 37 °C for 15 min. The reaction was started by the addition of 5-FAM/QXL 520 substrate in a 20 µL total reaction volume containing 240 nM HCV NS3/4A protease and increasing concentrations of hal3 or suvanine. Reactions were then incubated at 37 °C for 120 min on a LightCycler 1.5 (Roche Diagnostics, Basel, Switzerland), and the fluorescence intensity was recorded every min for 120 min. NS3 serine protease activity was calculated as the initial reaction velocity in the sample containing inhibitor relative to the control sample containing DMSO vehicle rather than inhibitor.

HCV NS3 helicase [1] = biological target: T2, HCV NS3 helicase (Hepatitis C virus genotype 1a, UniProt P27958); experiment: PET-based fluorescence helicase assay; type: biochemical
T2 construct: The full-length HCV NS3 protein with serine protease and NTPase/helicase activities was expressed and purified as described previously; made in house
T2 sequence (P27958 1027-1657): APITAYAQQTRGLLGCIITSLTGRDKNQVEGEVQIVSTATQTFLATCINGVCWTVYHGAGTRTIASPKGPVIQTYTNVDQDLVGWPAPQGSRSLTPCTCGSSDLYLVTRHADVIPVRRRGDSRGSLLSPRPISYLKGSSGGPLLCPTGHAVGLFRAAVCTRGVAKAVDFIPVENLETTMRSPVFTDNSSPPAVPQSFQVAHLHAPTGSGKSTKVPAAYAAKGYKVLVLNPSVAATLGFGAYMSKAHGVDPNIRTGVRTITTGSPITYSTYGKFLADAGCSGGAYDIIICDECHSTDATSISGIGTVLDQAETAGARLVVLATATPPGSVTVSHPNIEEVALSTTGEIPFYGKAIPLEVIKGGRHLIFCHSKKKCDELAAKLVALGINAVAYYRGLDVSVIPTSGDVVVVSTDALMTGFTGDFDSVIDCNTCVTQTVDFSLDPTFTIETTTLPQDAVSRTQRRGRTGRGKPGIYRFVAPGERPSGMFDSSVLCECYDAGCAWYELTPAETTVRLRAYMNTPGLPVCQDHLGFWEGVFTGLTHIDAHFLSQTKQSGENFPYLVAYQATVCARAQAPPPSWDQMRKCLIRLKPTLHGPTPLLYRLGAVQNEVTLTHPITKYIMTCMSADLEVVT
Description: The PET-based fluorescence helicase assay was performed as described previously. The dsRNA substrate was prepared by annealing the 5′ BODIPY FL-labeled fluorescence strand (5′-[…]-3′) to the quencher strand (5′-[…]-3′) at a 1:2 molar ratio. The dsRNA substrate contains the 3′-overhang that is necessary for the NS3 helicase to bind RNA prior to duplex unwinding. The capture strand (5′-[…]-3′), which is complementary to the quencher strand, prevents the unwound duplexes from reannealing. None of the capture, quencher, or fluorescence strands are self-complementary. The fluorescence strand was purchased from J-Bio 21 Corporation (Tokyo, Japan), and was labeled with BODIPY FL at the 5′-end via an aminohexylphosphate linker with a six-carbon spacer. […]
The reaction was started by the addition of HCV NS3 helicase, and was performed at 37 °C for 30 min using a LightCycler 1.5 (Roche Diagnostics, Basel, Switzerland). The fluorescence intensity was recorded every 5 s from 0 to 5 min, and then every 30 s from 5 to 30 min. Helicase activity was calculated as the initial reaction velocity relative to control (in the absence of a marine extract, but presence of DMSO vehicle). The IC50 was calculated using KaleidaGraph (Synergy Software, Reading, PA, USA) by fitting plots of % activity vs. [I] using Equation (1) unless otherwise noted: [drawing 1] […]

DENV NS3 helicase = biological target: T3, DENV NS3 helicase (Dengue virus type 2, UniProt P29990); experiment: Gel-based DENV NS3 helicase assay; type: biochemical; conditions: in the presence of 100 µM of each inhibitor
T3 construct: made in house
T3 sequence (P29990 1476-2093): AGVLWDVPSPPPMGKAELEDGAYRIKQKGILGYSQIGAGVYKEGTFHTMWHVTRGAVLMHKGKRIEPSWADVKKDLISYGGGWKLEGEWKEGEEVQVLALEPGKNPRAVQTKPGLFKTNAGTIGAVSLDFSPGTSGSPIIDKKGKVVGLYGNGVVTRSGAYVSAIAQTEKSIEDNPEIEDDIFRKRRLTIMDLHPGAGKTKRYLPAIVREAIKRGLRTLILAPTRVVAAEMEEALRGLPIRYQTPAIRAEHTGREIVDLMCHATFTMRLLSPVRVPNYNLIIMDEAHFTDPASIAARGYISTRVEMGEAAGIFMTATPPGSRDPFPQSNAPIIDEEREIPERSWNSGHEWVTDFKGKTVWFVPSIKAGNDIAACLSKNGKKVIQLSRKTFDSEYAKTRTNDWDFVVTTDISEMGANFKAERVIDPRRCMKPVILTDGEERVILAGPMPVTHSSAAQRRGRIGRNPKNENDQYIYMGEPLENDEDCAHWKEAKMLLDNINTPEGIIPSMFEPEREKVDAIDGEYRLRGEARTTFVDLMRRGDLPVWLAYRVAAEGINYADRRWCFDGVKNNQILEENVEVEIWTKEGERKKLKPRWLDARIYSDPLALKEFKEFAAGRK
Description: A gel-based helicase assay was performed using DENV NS3 helicases, and the Alexa Fluor 488-labeled dsRNA strand and capture strand with the same nucleic acid sequences described in the Section 3.3. DENV NS3 helicase requires a single stranded 3′ overhang to unwind dsRNA substrates in the 3′ to 5′ direction; therefore, the substrate specificities of the DENV and HCV NS3 helicases are the same. The reaction mixture contained 50 mM Tris-HCl (pH 7.4), 1 mM DTT, 0.5% Tween 20, 0.25 µg/mL BSA, 2 mM MgCl2, 4 U RNasin (Promega), 5 mM ATP, 50 nM dsRNA substrate, 300 nM capture strand, an inhibitor, and 240 nM DENV NS3 in a total volume of 20 µL. DENV NS3 helicase was prepared as described previously. The reaction was started by the addition of DENV NS3 helicase, and was performed at 37 °C for 60 min using a GeneAmp PCR System 2700 (Applied Biosystems, Foster City, CA, USA). […] The helicase activity was calculated as the ratio of the signal intensity from ssRNA in the sample containing inhibitor to that in the control sample containing DMSO vehicle instead of inhibitor.

NS3 RNA binding activity = biological target: T4, NS3 RNA binding activity (Hepatitis C virus genotype 1a, UniProt P27958); experiment: RNA binding assay (gel mobility shift); conditions: 32P-labeled ssRNA, 0–100 µM inhibitor
T4 construct: The full-length HCV NS3 protein with serine protease and NTPase/helicase activities was expressed and purified as described previously; made in house
T4 sequence (P27958 1027-1657): as the sequence (P27958 1027-1657) above
Description: NS3 RNA binding activity was determined by gel mobility shift assay, as described previously. The ssRNA (5′-[…]-3′) synthesized by Gene Design (Osaka, Japan) was labeled at the 5′-end with [γ-^32P] ATP (Muromachi Yakuhin, Tokyo, Japan) using T4 polynucleotide kinase (Toyobo, Osaka, Japan) at 37 °C for 60 min, and purified using the phenol-chloroform extraction method. The reaction mixture contained 30 mM Tris-HCl (pH 7.5), 100 mM NaCl, 2 mM MgCl2, 1 mM dithiothreitol, 20 U RNasin Plus (Promega), 300 nM NS3, 0.1 nM ^32P-labeled ssRNA, and increasing concentrations of inhibitor in a volume of 20 µL. The reaction was performed at room temperature for 15 min. An equal volume of a dye solution containing 0.025% bromophenol blue and 10% glycerol in 0.5× TBE was then added to each reaction mixture, and samples were loaded onto a 6% native-polyacrylamide gel. The labeled RNA bands were visualized using an Image Reader FLA-9000 and quantified using Multi Gauge software V 3.11 (Fujifilm, Tokyo, Japan). RNA binding activity was calculated as the ratio of the signal intensity derived from the NS3-ssRNA complex in the sample containing hal3 or suvanine to that in the control sample containing DMSO vehicle rather than inhibitor.

HCV NS3 helicase [2] = biological target: T2, HCV NS3 helicase; experiment: Gel-based HCV NS3 helicase assay; type: biochemical; conditions: 0–100 µM inhibitor
Description: A gel-based helicase assay was performed on HCV NS3 helicases using an Alexa Fluor 488-labeled dsRNA strand and capture strand with the same nucleic acid sequences described in Section 3.2. The dsRNA substrate was prepared by annealing the 5′ Alexa Fluor 488-labeled strand (5′-[…]-3′) to the complementary strand (5′-[…]-3′) at a 1:2 molar ratio. The same capture strand described in Section 3.2 was used. All nucleic acid strands were purchased from Japan Bio Services (Saitama, Japan). The reaction mixture for HCV NS3 helicase contained the same components as described in Section 3.2, with increasing concentrations of hal3 or suvanine in a reaction volume of 20 µL. The reaction was started by the addition of HCV NS3 helicase, and performed at 37 °C for 60 min using a GeneAmp PCR System 2700 (Applied Biosystems, Foster City, CA, USA). […] The helicase activity was calculated as the ratio of the signal intensity derived from ssRNA in the sample containing inhibitor to that in the control sample containing DMSO vehicle instead of inhibitor.

NS3 ATPase activity = biological target: T5, NS3 ATPase activity (Hepatitis C virus genotype 1a, UniProt P27958); experiment: ATPase assay ([γ-32P] ATP hydrolysis, thin-layer chromatography); type: biochemical; conditions: poly(U) RNA, 0–100 µM inhibitor
T5 construct: The full-length HCV NS3 protein with serine protease and NTPase/helicase activities was expressed and purified as described previously; made in house
T5 sequence (P27958 1027-1657): as above
Description: NS3 ATPase activity was determined directly by monitoring [γ-^32P] ATP hydrolysis by thin-layer chromatography, as described previously. The reaction mixture contained 25 mM MOPS-NaOH (pH 7.0), 1 mM dithiothreitol, 5 mM MgCl2, 5 mM CaCl2, 1 mM [γ-^32P] ATP (Muromachi Yakuhin, Tokyo, Japan), 300 nM NS3, 0.1 µg/µL poly (U) ssRNA (Sigma-Aldrich, St. Louis, MO, USA), and increasing concentrations of hal3 or suvanine in a volume of 10 µL. The reaction was conducted at 37 °C for 10 min, and stopped by the addition of 10 mM EDTA. Two microliters of each reaction mixture was then spotted onto a polyethyleneimine cellulose sheet (Merck, Darmstadt, Germany) and developed in 0.75 M LiCl/1 M formic acid solution for 20 min. The cellulose sheet was dried, and the released [γ-^32P] phosphoric acid was visualized using an Image Reader FLA-9000 and quantified using Multi Gauge software V 3.11 (Fujifilm, Tokyo, Japan). ATPase activity was calculated as the ratio of the signal intensity derived from the released Pi in the sample containing inhibitor to that in the control sample containing DMSO vehicle instead of inhibitor.

heat shock protein 60 = conditions: cited from earlier work
farnesoid-X-receptor = system: farnesoid-X-receptor; parameters: method as in PMID 23656455; conditions: mammalian bile acid sensor; cited from earlier work
serine protease = conditions: cited from earlier work

T1 sequence (P27958 1027-1657): as above

| SMILES | IC50 (HCV NS3/4A protease) [µM] | IC50 (HCV NS3 helicase [1]) [µM] | DENV NS3 helicase activity (DENV NS3 helicase) | IC50 (NS3 RNA binding activity) [µM] | helicase-catalyzed RNA unwinding (HCV NS3 helicase [2]) | IC50 (NS3 ATPase activity) [µM] | interference with heat shock protein 60 (heat shock protein 60) | farnesoid-X-receptor antagonism (farnesoid-X-receptor) | serine protease inhibition (serine protease) |
| --- | --- | --- | --- | --- | --- | --- | --- | --- | --- |
| C[C@@H]1CCC2=C(CCCC2(C)C)[C@@]1(C)CC[C@H](CCCc1ccoc1)COS(=O)(=O)[O-].[Na+] [hal3, halisulfate 3] | 14 | 4 | did not abolish | 8 | inhibited helicase-catalyzed RNA unwinding in a dose-dependent manner | 8 | – | – | – |
| CC1(C)CCC[C@]2(C)[C@H]3CC/C(=C\OS(=O)(=O)[O-])[C@H](CCc4ccoc4)[C@@]3(C)CC[C@@H]12.[Na+] [suvanine] | 34 | 3 | did not abolish | 3 | inhibited helicase-catalyzed RNA unwinding in a dose-dependent manner | 7 | interferes with | antagonist | serine protease inhibitor |
